# In paper PMC5740082, “Identification of a CARM1 Inhibitor with Potent In Vitro and In Vivo Activity in Preclinical Models of Multiple Myeloma” (Scientific Reports, 2017):
# Several values for one entry are separate records, joined by “and”; a condition that tells them apart may be missing. Equal entries are not always repeated. Where two headings read alike, the source gives them in different places.
# What was measured:
# BT20 = experiment: Long term proliferation assay (15 days); type: cell-based; conditions: Homo sapiens, BT-20, 360 h, read-out: EZM2302 IC50 (absolute, long term proliferation); BT20, BREAST, day 15
# Method: (§1) Long term (14–15 day) cell proliferation assays were performed using the method previously described with adjustments to initial seeding densities depending on growth characteristics for each cell line[54],[55]. For 6 day proliferation studies, see Supplementary Methods.
# (§2) Supplementary Table S2. Long term proliferation IC50 values of cell lines dosed with EZM2302. A panel of cell lines was treated with EZM2302fo r 15 da ys in a long term proliferation assa y. Abs olute IC 50 values were calculated in GraphPad Pri sm (non -linear regression anal ysis, top of the curves were fixed to 100%) for each line at d ay 15 .
# MCF7 = experiment: Long term proliferation assay (15 days); type: cell-based; conditions: Homo sapiens, 360 h, read-out: EZM2302 IC50 (absolute, long term proliferation); MCF7, BREAST, day 15
# Method: as §1, §2
# VCAP = experiment: Long term proliferation assay (15 days); type: cell-based; conditions: Homo sapiens, 360 h, read-out: EZM2302 IC50 (absolute, long term proliferation), PROSTATE, day 15
# Method: as §1, §2
# HCT116 = experiment: Long term proliferation assay (15 days); type: cell-based; conditions: Homo sapiens, HCT-116, 360 h, read-out: EZM2302 IC50 (absolute, long term proliferation); HCT116, LARGE, day 15
# Method: as §1, §2
# LNCAP = experiment: Long term proliferation assay (15 days); type: cell-based; conditions: Homo sapiens, 360 h, read-out: EZM2302 IC50 (absolute, long term proliferation), PROSTATE, day 15
# Method: as §1, §2
# HT29 = experiment: Long term proliferation assay (15 days); type: cell-based; conditions: Homo sapiens, HT-29, 360 h, read-out: EZM2302 IC50 (absolute, long term proliferation); HT29, LARGE, day 15
# Method: as §1, §2
# REC-1 = experiment: Six-day cell proliferation assay (CellTiter-Glo); type: cell-based; conditions: Homo sapiens, Rec1, 144 h; REC-1 (B-NHL), 6 days; read-out: Average day 6 gIC50
# Method: Six-day cell proliferation assay
# Optimal cell seeding density was determined empirically for each cell lines by examining the gro wth of a wide ran ge o f seedin g densities in a 3 84-well formatto identify conditio ns that permitted maximal and continued proliferation for 6 days. Cells were plat ed in duplicate plates 24 hours before treatment with a 20- point two-fold dilution series of compound or 0.15%
# DMSO. Plates were incubated for 6 da ys at 37°C in 5% CO2. Cells were th en l ysed with CellTiter-Glo (CTG) (Pr omega) and chemiluminescent sign al was detected with an appropriat e microplate reader. In addition, an untreated plate of cells was harvested at the time of compound addition (T0) to quantif y the initial cell densit y. CTG values obtained after 6 days of treatment were expressed as a percent of the T0 value and plotted against compound concentration. […]
# Supplementary Table S 3. […] A p anel […]
# of cell lines was treated with EZM2302fo r 6da ys in a proliferation ass a y. Cell densit y (as assessed b y CellTiter-Gl o) at da y 0 was compared to day 6 to det ermine growth IC 50 values , calculated us i n g a f our parameter dose response equation.
# Cell Type According to Cell Type Category Cell L ine Name gIC50 Average day 6 Standard Replicates
# Supplier Modifier gIC50 (nM) Deviation
# [1] = tested on: PABP1 and SmB methylation in U266B1 cells; experiment: Western blot of cellular methyl marks, U266B1; conditions: 96 h
# Method: Methylation changes were measured at the well-characterized CARM1 substrates PABP1 and SmB[1],[10]. Changes in overall levels of asymmetric dimethyl arginine (aDMA) were assessed with an antibody that detects a generic aDMA motif. Levels of methylated analytes were quantified by densitometry and ratios of methylated to total protein were calculated to determine the cell biochemical IC50 values.
# Cultured cells in linear/log phase growth were split to a seeding density of 2e5 cells/mL in 2–20mLs of media, depending on the yield required at the end of the growth period. Compound was diluted in DMSO and added to each culture vessel with a final DMSO concentration of 0.2%. Cells were allowed to grow for 96 hours. At the conclusion of each treatment period, cells were harvested by centrifugation (5 minutes, 1200 rpm), and cell pellets were rinsed once with PBS before being frozen on dry ice pending further processing.
# Quantification of Western blots was performed using infra-red emitting secondary antibodies and detection with an ODYSSEY infrared imaging system.
# [2] = Pharmacokinetic study in mouse
# Method: (§7) An additional group of rats, cannulated in both the jugular and portal veins were dosed by oral gavage (10 mg/kg, in 0.5% methylcellulose in water). Approximately 110 μL of blood was taken from the animals by retro-orbital bleeding (mouse), tail vein (rat i.v.) or both jugular and portal vein sampling (rat p.o.) at pre-specified time intervals. The 2 h samples were split for parallel determination of blood and plasma concentration (ex vivo ratio). Blood samples were collected into K2-EDTA tubes and centrifuged to obtain plasma.
# CYP2D6 = biological target: T1, CYP2D6 (Homo sapiens, UniProt P10635); experiment: Cytochrome P450 inhibition; type: in vitro ADME; conditions: human liver microsomes, tested up to 25 µM
# T1 construct: with human liver microsomes; from tissue; host or cells: human liver microsomes
# Method: (§3) Hepatocyte stability, plasma protein binding and cytochrome P450 assays were performed using standard procedures. Details can be found in Supplementary Methods. […]
# (§4) Cytochrome P450 Inhibition (IC50 Determination) […]
# (§5) with human liver microsomes (0.1 to 1 mg/m L) and NADPH (1 mM) in the presence of specific probe substrates at 37°C. Probe substrates and incubation times were: phenacetin (30 µM, 5 min), tolbutamide (120 µM, 60 min), mephenytoi n (25 µM, 60 min) and dextromethorphan (5 µM, 5 min) for CYP1A2, CYP2C9, CYP2C19 and CYP2D6, respectivel y. For CYP3A4, midazolam (2.5 µM, 5 min) andtestosterone (50 µM, 5 min) were used as probe substrates. […]
# (§6) isoform. All reactions were terminated b y addition of methanol prior to cent rifugation and addition of internal standard to the supernatants. For CYP2C9, CYP2C19, CYP2D6 and CYP3A4 (midazolam) incubations, the supernat ants were combined for the simultaneous anal ysis o f 4-h ydrox ytol butamide, 4- hydrox ymephenytoin, dextrorphan and 1-hydrox ymidazolam b y LC-MS/MS. For the CYP1A2 and CYP3A4 (testosterone) incubations, the supernatants were anal yzed individuall y for acetaminophen and 6ß-h ydrox ytestosterone b y LC -MS/MS. A decrease i n the formation of the metabolites compared to vehicle control was used to calculate an IC50 value.
# CYP2C9 = biological target: T2, CYP2C9 (Homo sapiens, UniProt P11712); experiment: Cytochrome P450 inhibition; type: in vitro ADME; conditions: human liver microsomes, tested up to 25 µM
# T2 construct: with human liver microsomes; from tissue; host or cells: human liver microsomes
# Method: as §3, §4, §5, §6
# CYP1A2 = biological target: T3, CYP1A2 (Homo sapiens, UniProt P05177); experiment: Cytochrome P450 inhibition; type: in vitro ADME; conditions: human liver microsomes, tested up to 25 µM
# T3 construct: with human liver microsomes; from tissue; host or cells: human liver microsomes
# Method: as §3, §4, §5, §6
# CYP2C19 = biological target: T4, CYP2C19 (Homo sapiens, UniProt P33261); experiment: Cytochrome P450 inhibition; type: in vitro ADME; conditions: human liver microsomes, tested up to 25 µM
# T4 construct: with human liver microsomes; from tissue; host or cells: human liver microsomes
# Method: as §3, §4, §5, §6
# CYP3A4 = biological target: T5, CYP3A4 (Homo sapiens, UniProt P08684); experiment: Cytochrome P450 inhibition; type: in vitro ADME; conditions: human liver microsomes, tested up to 25 µM
# T5 construct: with human liver microsomes; from tissue; host or cells: human liver microsomes
# Method: as §3, §4, §5, §6
# [3] = Pharmacokinetic study in rat
# Method: as §7
# [4] = male, CD-1, mouse, plasma, iv, 2 mg/kg
# [5] = male, CD-1, mouse, plasma, po, 10 mg/kg
# [6] = Sprague-Dawley, rat, plasma, po, 10 mg/kg
# [7] = male, Sprague-Dawley, rat, plasma, iv, 2 mg/kg
# T1 sequence (P10635 whole entry): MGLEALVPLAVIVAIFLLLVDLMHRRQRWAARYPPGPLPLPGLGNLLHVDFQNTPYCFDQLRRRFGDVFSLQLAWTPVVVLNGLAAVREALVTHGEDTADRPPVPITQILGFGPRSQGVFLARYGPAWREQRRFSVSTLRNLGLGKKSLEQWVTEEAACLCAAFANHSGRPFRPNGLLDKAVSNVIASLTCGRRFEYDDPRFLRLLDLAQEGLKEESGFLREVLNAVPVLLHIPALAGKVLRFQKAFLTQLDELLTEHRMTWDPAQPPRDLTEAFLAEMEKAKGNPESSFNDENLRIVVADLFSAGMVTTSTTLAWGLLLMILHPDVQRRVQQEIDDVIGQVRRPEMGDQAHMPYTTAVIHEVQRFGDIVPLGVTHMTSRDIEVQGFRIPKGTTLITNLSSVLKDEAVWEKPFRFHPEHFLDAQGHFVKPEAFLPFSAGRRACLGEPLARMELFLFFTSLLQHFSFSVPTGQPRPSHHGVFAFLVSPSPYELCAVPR
# T3 sequence (P05177 whole entry): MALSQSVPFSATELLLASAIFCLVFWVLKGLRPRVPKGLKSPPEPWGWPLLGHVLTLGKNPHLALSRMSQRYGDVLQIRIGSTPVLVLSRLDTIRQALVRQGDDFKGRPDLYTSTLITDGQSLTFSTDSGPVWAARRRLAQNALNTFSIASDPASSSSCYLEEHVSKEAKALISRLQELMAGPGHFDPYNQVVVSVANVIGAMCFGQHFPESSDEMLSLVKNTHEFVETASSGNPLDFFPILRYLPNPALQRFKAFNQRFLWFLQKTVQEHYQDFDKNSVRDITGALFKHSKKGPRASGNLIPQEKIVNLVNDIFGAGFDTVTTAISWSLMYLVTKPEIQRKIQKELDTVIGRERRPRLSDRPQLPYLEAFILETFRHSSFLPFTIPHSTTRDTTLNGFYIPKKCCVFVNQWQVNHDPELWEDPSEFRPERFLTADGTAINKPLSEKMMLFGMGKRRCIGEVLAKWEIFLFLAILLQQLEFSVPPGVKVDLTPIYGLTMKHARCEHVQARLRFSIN
# T4 sequence (P33261 whole entry): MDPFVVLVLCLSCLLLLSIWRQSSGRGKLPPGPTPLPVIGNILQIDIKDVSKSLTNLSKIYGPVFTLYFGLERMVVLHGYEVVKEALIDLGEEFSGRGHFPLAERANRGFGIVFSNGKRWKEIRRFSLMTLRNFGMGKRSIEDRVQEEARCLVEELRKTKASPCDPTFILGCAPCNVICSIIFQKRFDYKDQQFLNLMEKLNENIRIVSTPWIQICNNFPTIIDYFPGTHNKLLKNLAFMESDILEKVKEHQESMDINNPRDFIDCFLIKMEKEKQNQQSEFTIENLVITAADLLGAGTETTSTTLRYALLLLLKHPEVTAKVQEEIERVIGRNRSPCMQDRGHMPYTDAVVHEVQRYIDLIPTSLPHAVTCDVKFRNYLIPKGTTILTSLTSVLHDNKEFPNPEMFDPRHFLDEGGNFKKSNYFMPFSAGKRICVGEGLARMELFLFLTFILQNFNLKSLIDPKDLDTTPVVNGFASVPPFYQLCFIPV
# T5 sequence (P08684 whole entry): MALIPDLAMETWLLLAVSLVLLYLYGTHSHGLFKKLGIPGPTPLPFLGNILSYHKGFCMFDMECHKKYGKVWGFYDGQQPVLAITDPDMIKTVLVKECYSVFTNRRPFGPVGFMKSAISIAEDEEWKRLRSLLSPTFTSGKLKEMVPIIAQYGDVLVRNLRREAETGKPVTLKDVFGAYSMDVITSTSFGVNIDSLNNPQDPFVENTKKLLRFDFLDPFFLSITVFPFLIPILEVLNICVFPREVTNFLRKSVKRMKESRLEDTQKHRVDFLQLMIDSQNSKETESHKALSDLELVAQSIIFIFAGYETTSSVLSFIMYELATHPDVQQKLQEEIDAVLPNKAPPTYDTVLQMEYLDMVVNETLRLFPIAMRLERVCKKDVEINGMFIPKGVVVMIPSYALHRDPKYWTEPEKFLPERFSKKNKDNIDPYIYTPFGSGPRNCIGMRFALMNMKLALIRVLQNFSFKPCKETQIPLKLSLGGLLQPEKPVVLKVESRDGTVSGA
# T2 sequence (P11712 whole entry): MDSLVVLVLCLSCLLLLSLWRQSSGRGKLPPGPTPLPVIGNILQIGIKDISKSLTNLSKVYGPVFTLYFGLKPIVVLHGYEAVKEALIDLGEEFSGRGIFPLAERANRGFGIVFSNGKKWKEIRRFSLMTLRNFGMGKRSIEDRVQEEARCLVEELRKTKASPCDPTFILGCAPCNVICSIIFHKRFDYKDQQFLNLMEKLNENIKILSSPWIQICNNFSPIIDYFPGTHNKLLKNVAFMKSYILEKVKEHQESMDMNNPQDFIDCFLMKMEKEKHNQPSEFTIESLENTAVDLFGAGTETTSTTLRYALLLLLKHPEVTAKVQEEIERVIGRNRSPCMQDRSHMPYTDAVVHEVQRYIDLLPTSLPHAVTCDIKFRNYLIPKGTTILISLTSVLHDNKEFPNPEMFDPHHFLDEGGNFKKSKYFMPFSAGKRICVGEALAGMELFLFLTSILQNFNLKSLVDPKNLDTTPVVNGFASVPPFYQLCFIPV
compound,measurement,setting,value
CNC[C@@H](O)COc1ccc(Cl)c(-c2nc(-c3c(C)noc3C)c(C)c(N3CC4(CCN(C(=O)OC)CC4)C3)n2)c1 [EZM2302],IC50,BT20,> 20 µM
same,IC50,MCF7,> 20 µM
same,IC50,VCAP,> 20 µM
same,IC50,HCT116,> 20 µM
same,IC50,LNCAP,12.2 µM
same,IC50,HT29,> 20 µM
same,IC50,REC-1,> 7.33 µM
same,IC50,"[1]; read-out: IC50, PABP1me2a",0.022 µM
same,IC50,"[1]; read-out: IC50, SmBme0",0.02 µM
same,CL (plasma clearance),"[2]; CD-1 mouse, IV Bolus 2 mg/kg, 2 mg/kg",43.2 mL/min/kg
same,AUC(0-inf),[2]; [4],772 ng·h/mL
same,AUC(0-t),[2]; [4],767 ng·h/mL
same,Vd,[2]; [4],6.53 L/kg
same,half-life,[2]; [4],4.22 h
same,clearance,"[2]; male, CD-1, mouse, plasma, iv, 2 mg/kg, CL (plasma clearance), IV Bolus 2 mg/kg",43 mL/min/kg
same,AUC(0-inf),[2]; [5],577 ng·h/mL
same,AUC(0-t),[2]; [5],568 ng·h/mL
same,Cmax,[2]; [5],177 ng/mL
same,Tmax,[2]; [5],2 h
same,bioavailability,[2]; [5],15%
same,half-life,[2]; [5],4.55 h
same,CYP2D6 inhibition,CYP2D6,did not inhibit
same,CYP2C9 inhibition,CYP2C9,did not inhibit
same,CYP1A2 inhibition,CYP1A2,did not inhibit
same,CYP2C19 inhibition,CYP2C19,did not inhibit
same,CYP3A4 inhibition,CYP3A4,did not inhibit
same,CL (plasma clearance),"[3]; Sprague-Dawley rat, IV Bolus 2 mg/kg, 2 mg/kg",90.5 ± 10.5 mL/min/kg
same,Fa*Fg (fraction of the dose absorbed from the gastro-intestinal tract),"[3]; Sprague-Dawley rat, PO 10 mg/kg, JVC-PVC rat PK experiment, 10 mg/kg",81% and 80.7%
same,AUC(0-inf),[3]; [6],487 ± 102 ng·h/mL
same,AUC(0-t),[3]; [6],453 ± 89.3 ng·h/mL
same,Cmax,[3]; [6],113 ± 22.4 ng/mL
same,Tmax,[3]; [6],2 h
same,bioavailability,[3]; [6],26.2 ± 5.45%
same,half-life,[3]; [6],6.64 ± 1.41 h
same,AUC(0-inf),[3]; [7],372 ± 43.3 ng·h/mL
same,AUC(0-t),[3]; [7],352 ± 30.6 ng·h/mL
same,Vd,[3]; [7],35.6 ± 1.3 L/kg
same,half-life,[3]; [7],6.21 ± 1.65 h
same,clearance,"[3]; male, Sprague-Dawley, rat, plasma, iv, 2 mg/kg, CL (plasma clearance), Sprague-Dawley rat, IV Bolus 2 mg/kg",91 mL/min/kg
